Here are results for 13 compounds from ChEMBL document CHEMBL2169839 (J Med Chem, 2012).

What is called IC50 is the concentration that gives 50% inhibition. What is called Ki is a measure of affinity in units of concentration, obtained from inhibition or displacement.

Test [1] concerns the target T1, Aldo-keto reductase family 1 member C4 (Homo sapiens, UniProt P17516).
T1 sequence (P17516 whole entry): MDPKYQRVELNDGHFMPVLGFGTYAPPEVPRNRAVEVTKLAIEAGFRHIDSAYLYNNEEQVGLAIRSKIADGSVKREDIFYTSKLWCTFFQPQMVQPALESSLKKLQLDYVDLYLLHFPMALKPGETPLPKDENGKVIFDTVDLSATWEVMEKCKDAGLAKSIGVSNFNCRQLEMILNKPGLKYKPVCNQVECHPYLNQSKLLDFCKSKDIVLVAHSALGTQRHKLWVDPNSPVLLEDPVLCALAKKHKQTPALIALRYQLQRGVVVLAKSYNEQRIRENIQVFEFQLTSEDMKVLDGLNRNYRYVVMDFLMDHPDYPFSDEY

In test [2] the target is T2, Aldo-keto reductase family 1 member C2 (Homo sapiens, UniProt P52895).
T2 sequence (P52895 whole entry): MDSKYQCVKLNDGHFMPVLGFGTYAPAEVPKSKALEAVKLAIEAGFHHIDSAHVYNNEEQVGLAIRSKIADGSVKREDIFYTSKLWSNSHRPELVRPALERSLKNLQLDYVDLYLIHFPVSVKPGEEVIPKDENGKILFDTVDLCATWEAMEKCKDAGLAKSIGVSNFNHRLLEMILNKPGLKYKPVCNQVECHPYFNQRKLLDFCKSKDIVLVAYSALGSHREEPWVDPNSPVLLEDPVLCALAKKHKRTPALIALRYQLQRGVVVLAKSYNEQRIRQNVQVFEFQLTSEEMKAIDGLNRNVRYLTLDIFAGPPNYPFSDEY

Test [3] has as its target T3, Aldo-keto reductase family 1 member C1 (Homo sapiens, UniProt Q04828).
T3 sequence (Q04828 whole entry): T2 sequence (P52895 whole entry) with V38T, H47R, V54L, S87C, M151V, H170R, L172Q

In test [4] the target is T4, Aldo-keto reductase family 1 member C3 (Homo sapiens, UniProt P42330).
T4 sequence (P42330 whole entry): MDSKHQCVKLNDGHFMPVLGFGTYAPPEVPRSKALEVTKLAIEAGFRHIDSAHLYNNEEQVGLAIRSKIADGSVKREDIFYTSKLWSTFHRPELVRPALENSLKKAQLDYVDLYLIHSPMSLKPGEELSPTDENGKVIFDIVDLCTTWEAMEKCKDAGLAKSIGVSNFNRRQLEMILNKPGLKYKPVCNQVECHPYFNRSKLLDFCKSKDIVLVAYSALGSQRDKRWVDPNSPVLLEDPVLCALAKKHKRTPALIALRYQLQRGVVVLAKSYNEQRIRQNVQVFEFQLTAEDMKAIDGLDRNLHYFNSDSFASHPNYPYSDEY
Nature of the test: biochemical.
Description: Inhibition of human recombinant N-terminal His6-tagged AKR1C3 expressed in Escherichia coli BL21(DE3) cells using 8-Acetyl-2,3,5,6-tetrahydro-1H,4H-11-oxa-3a-aza-benzo[de]anthracen-10-one as substrate after 1 hr by fluorimetric analysis

The target in test [5] is T4, Aldo-keto reductase family 1 member C3. The test can be described thus: Inhibition of AKR1C3 overexpressed in human HCT116 cells assessed as inhibition of PR-104A conversion to hydroxylamine after 2 hrs by LC-MS/MS analysis.
Test [6] addresses T1, Aldo-keto reductase family 1 member C4. Nature of the test: Inhibition of human recombinant AKR1C4 expressed in Escherichia coli BL21(DE3) using phenanthrenequinone as substrate by spectrophotometric analysis.
Test [7] concerns the target T4, Aldo-keto reductase family 1 member C3.
Test [8] concerns the target T3, Aldo-keto reductase family 1 member C1. The test can be described thus: Inhibition of human recombinant AKR1C1 expressed in Escherichia coli BL21(DE3) using phenanthrenequinone as substrate by spectrophotometric analysis.

Positions count from the first letter of the chain named.

As to `O=C(O)c1cccc(S(=O)(=O)N2CCc3c(I)cccc3C2)c1`, the IC50 was > 30000 nM in test [1]; > 30000 nM in test [2]; > 30000 nM in test [3]; 14 nM in test [4]; 20 nM in test [5].

In the case of `O=C(O)[C@@H]1CCCN(S(=O)(=O)c2ccc3ccccc3c2)C1`, the IC50 was > 30000 nM in test [1]; > 30000 nM in test [2]; > 30000 nM in test [3]; 32 nM in test [4]; > 1000 nM in test [5].

As to `O=C(O)c1cccc(S(=O)(=O)N2CCc3ccc(Cl)cc3C2)c1`, the IC50 in test [1] is > 30000 nM; in test [2], > 30000 nM; in test [3], > 30000 nM; in test [4], 20 nM; in test [5] it was > 1000 nM.

With `O=C(O)c1cccc(S(=O)(=O)N2CCc3cccc(Cl)c3C2)c1`, the IC50 is > 30000 nM in test [1]; 12100 nM in test [2]; 740 nM in test [3]; 19 nM in test [4]; 28 nM in test [5].

On to `CN(C)C(=O)c1cccc(S(=O)(=O)N2CCc3ccccc3C2)c1`, for which the IC50 in test [1] was > 30000 nM; in test [2], > 30000 nM; in test [3], > 30000 nM; in test [4] it was 53 nM; in test [5], 14 nM.

With `Nc1cccc2c1CCN(S(=O)(=O)c1cccc(C(=O)O)c1)C2`, the IC50 was > 30000 nM in test [1]; > 30000 nM in test [2]; > 30000 nM in test [3]; 53 nM in test [4]; 193 nM in test [5].

Take `CC/C=C\C[C@H]1C(=O)CC[C@@H]1CC(=O)O` [JASMONIC ACID]: the Ki turned out to be 37000 nM in test [6], 162000 nM in test [7] and 106000 nM in test [8].

`COc1cccc2c1CCN(S(=O)(=O)c1cccc(C(=O)O)c1)C2`: the IC50 in test [1] was > 30000 nM; in test [2], > 30000 nM; in test [3], > 30000 nM; in test [4], 16 nM; in test [5], 39 nM.

For the compound `CC1Cc2ccccc2CN1S(=O)(=O)c1cccc(C(=O)O)c1` (stereo not drawn), the IC50 in test [1] was > 30000 nM; in test [2] it was > 30000 nM; in test [3] it was > 30000 nM; in test [4] it was 8.6 nM; in test [5], 176 nM.

Consider `O=C(O)c1cccc(S(=O)(=O)N2CCc3cc(O)ccc3C2)c1`, for which the IC50 in test [1] was > 30000 nM; in test [2], > 30000 nM; in test [3] it was > 30000 nM; in test [4] it was 27 nM; in test [5], > 1000 nM.

As to `O=C(O)c1cccc(S(=O)(=O)N2CCc3c(cccc3[N+](=O)[O-])C2)c1`, the IC50 was > 30000 nM in test [1]; > 30000 nM in test [2]; 24600 nM in test [3]; 8.9 nM in test [4]; 29 nM in test [5].

Turning to `O=C(NCCc1ccncc1)c1cccc(S(=O)(=O)N2CCc3ccccc3C2)c1`, the IC50 was > 30000 nM in test [1]; > 30000 nM in test [2]; > 30000 nM in test [3]; 58 nM in test [4]; 35 nM in test [5].

Regarding `O=C(O)c1cccc(S(=O)(=O)N2CCc3c(O)cccc3C2)c1`, the IC50 in test [1] is > 30000 nM; in test [2], > 30000 nM; in test [3], 25600 nM; in test [4] it was 16 nM; in test [5] it was 453 nM.
